We go through 24 compounds from patent publication US6576662B2, “Compounds having anticancer activity : process for their preparation and pharmaceutical compositions containing them” (Dr. Reddy's Laboratories Limited, priority 2000, dated 2003).

One series has as its system Human lymphocytes. Kind of series: Lymphocyte proliferation, tritiated thymidine incorporation. The format is cell-based. The settings on record: Concentration 1 μM; human lymphocytes with Phytohemagglutitin A. The method, then: Human lymphocytes were isolated from whole blood by using Ficoll Hypaque Plus (Amersham). On day one, 1 million lymphocytes were seeded into each well of 96 well plate in 100 μL volume of RPMI 1640 medium containing 10% FCS and Phytohemagglutitin A at 1 μg/well concentration. Plates were incubated at 37° C. in CO2 incubator for 24 h. Test compounds at various concentrations were added to test wells and only medium with vehicle was added to control wells. After 48 h of incubation […] of tritiated thymidine was added to each well. After 24 h of thymidine addition the cells were harvested and the incorporated radioactivity was determined. Stimulation Index (SI) was calculated using the formula, [formula]
A^T=Average CPM of treated wells,
A^C=Average CPM of control wells.

Another series concerns MCF7. Kind of series: in vitro anti-cancer screen, Sulforhodamine B method. The series is classed as cell-based, human. The settings on record: BREAST: MCF7; 48 h incubation; read-out: GROWTH INHIBITION (GI 50). As to the method:
(§1) Each test compound was screened against a battery of cell lines representing eight different types of cancers. In a typical procedure, 1×10^4 cells were seeded into each well of 96 well plate in 100 μL volume of RPMI 1640 medium containing antibiotics and 10% FCS.
(§2) The plates were incubated at 37° C. in presence of CO2. After 24 h, test compounds were evaluated at five 10 fold dilutions ranging from 100 to 0.01 μM. To each test well 100 μL of test compound solution was added and medium with vehicle was added to control wells and the plates were further incubated. After 48 h of incubation, plates were terminated by Sulforhodamine B method.
(§3) The optical density which is proportional to protein mass, is then-read by automated spectrophotometric plate reader at a wavelength of 515 nm.
(In general: In SRB staining, fixed cells bind dye roughly in proportion to their protein.)

In a further series the test system is MCF-7/ADR. The description is as above. The series is classed as cell-based, human. The settings on record: BREAST: MCF-7/ADR; 48 h incubation; read-out: GROWTH INHIBITION (GI 50). The method, then:
as §1, §2, §3

Another series relates to SW-620. The series is described as above. The settings on record: COLON: SW-620; 48 h incubation; read-out: GROWTH INHIBITION (GI 50). The series is classed as cell-based, human. As to the method: as §1, §2, §3
The subject of the next series is PA1. The series is described as above. The settings on record: OVARIAN: PA1; 48 h incubation; read-out: GROWTH INHIBITION (GI 50). The format is cell-based, human. The method, then: as §1, §2, §3
Another series deals with U251. The description is as above. The settings on record: CNS: U251; 48 h incubation; read-out: GROWTH INHIBITION (GI 50). The format is cell-based, human. The method, then: as §1, §2, §3
Another series concerns HT29. Described as above. The format is cell-based, human. The settings on record: COLON: HT29; 48 h incubation; read-out: GROWTH INHIBITION (GI 50). The method, then: as §1, §2, §3
A further series relates to UACC62. Described as above. The series is classed as cell-based, human. The settings on record: MELANOMA: UACC62; 48 h incubation; read-out: GROWTH INHIBITION (GI 50). The method, then: as §1, §2, §3
In a further series the test system is H522. The description is as above. The series is classed as cell-based, human. The settings on record: LUNG: H522; 48 h incubation; read-out: GROWTH INHIBITION (GI 50). The method, then:
as §1, §2, §3

The test system of another series is A498. The series is described as above. The series is classed as cell-based, human. The settings on record: RENAL: A498; 48 h incubation; read-out: GROWTH INHIBITION (GI 50). As to the method:
as §1, §2, §3

In another series the test system is SKOV-3. The description is as above. The format is cell-based, human. The settings on record: OVARIAN: SKOV-3; 48 h incubation; read-out: GROWTH INHIBITION (GI 50). As to the method: as §1, §2, §3

As for `C=C1CCC2[C@](C)(CO)[C@H](O)CC[C@]2(C)[C@H]1CC([Se]c1ccccc1)C1=CCOC1=O` (some centres unmarked), the melting point (in general, the temperature, or range, at which the solid turns liquid) is 186 °C.
With “3,19-Diacetyl-14-deoxy-12-[N^1-(5-iodouracil)]andrographolide [Example 48]”, in the series on Human lymphocytes, the “Stimulation Index (SI)” value was determined as 130. Moreover, the GI50 in the series on MCF7 was found to be 2000 nM; in the series on MCF-7/ADR it was 2000 nM; with SW-620, 4000 nM; with PA1, 2000 nM; in the series with U251, 2000 nM; with HT29 it was 4000 nM. Moreover, the GI50 was 3000 nM in the series with UACC62, 4000 nM in the series with H522, 3000 nM in the series on A498 and 3000 nM in the series on SKOV-3.
`C=C1CCC2[C@]3(C)COC(C)(c4ccccc4)OC3CC[C@]2(C)[C@H]1CC(NC(C(=O)OC)c1ccccc1)C1=CCOC1=O` (some centres unmarked) [Example 2, 14-Deoxy-12-(O-methylphenylglycino)-3,19-O-(1-phenylethylidene) androgrpaholide] displayed a melting point of 91 °C.
`C=C1CCC2C(C)(COC(C)=O)C(OC(C)=O)CCC2(C)C1CC(NC(Cc1ccccc1)C(=O)OC)C1=CCOC1=O` (centres unmarked) [Example 6, 3,19-Diacetyl-14-deoxy-12-(O-methylphenylalano)andrographolide]: the “Stimulation Index (SI)” value in the series on Human lymphocytes is 92.
With `C=C1CCC2C(C)(COC(C)=O)C(OC(C)=O)CCC2(C)C1CC(NC(CC[Se]C)C(=O)OC)C1=CCOC1=O` (centres unmarked) [Example 12, 3,19-Diacetyl-14-deoxy-12-(O-methylselenomethionino)andrographolide], the “Stimulation Index (SI)” value in the series on Human lymphocytes was found to be 40.
Take `C=C1CCC2[C@](C)(CO)C(O)CC[C@]2(C)[C@H]1CC(NC(C(=O)OC)c1ccccc1)C1=CCOC1=O` (some centres unmarked) [Example 19, 14-Deoxy-12-(O-methylphenylglycino)andrographolide]: the melting point was determined as 68 °C.
In turn, `C=C1CCC2[C@]3(C)COC(C)(C)OC3CC[C@]2(C)[C@H]1CC(NC(Cc1ccccc1)C(=O)OC)C1=CCOC1=O` (some centres unmarked) [Example 20, 14-Deoxy-3,19-O-isopropylidene-12-(methylphenylalanino)andrographolide] displayed a melting point of 57 °C.
Regarding `C=C1CCC2[C@]3(C)COC(c4ccccc4)OC3CC[C@]2(C)[C@H]1CC(NCc1ccccc1)C1=CCOC1=O` (some centres unmarked) [Example 24, 3,19-O-Benzylidene-12-(N-benzylamino)-14-deoxy andrographolide], the melting point was in the range of 172 to 173 °C.
As to `C=C1CCC2[C@](C)(CO)[C@H](O)CC[C@]2(C)[C@H]1CC(Nc1cccc(C)c1C)C1=CCOC1=O` (some centres unmarked) [Example 28, 1-(2,3-Dimethylanilino)-14-deoxy andrographolide], in the series with Human lymphocytes, the “Stimulation Index (SI)” value is given as 40.
As for `C=C1CCC2[C@](C)(CO)C(O)CC[C@]2(C)[C@H]1CC(Nc1ccc(OC)c(OC)c1)C1=CCOC1=O` (some centres unmarked) [Example 37, 14-Deoxy-12-(3,4-dimethoxyanilino)andrographolide], the melting point lay in the range of 225 to 230 °C.
`C=C1CCC2[C@]3(C)COC(C)(C)OC3CC[C@]2(C)[C@H]1CC(Nc1cccc(C)c1C)C1=CCOC1=O` (some centres unmarked) [Example 38, 14-Deoxy-3,19-O-isopropylidene-12-(2,3-dimethylanilino)andrographolide]: the melting point was 192.5 °C.
As for `C=C1CCC2[C@]3(C)COC(c4ccccc4)OC3CC[C@]2(C)[C@H]1CC(Nc1cccc(C)c1C)C1=CCOC1=O` (some centres unmarked) [Example 40, 3,19-O-Benzylidene-14-deoxy-12-(2,3-dimethylanilino)andrographolide], the melting point was found to be 118 °C.
Still for that read-out and setting: as for `C=C1CCC2[C@](C)(CO)[C@H](O)CC[C@]2(C)[C@H]1CC(Nc1cc[nH]c(=O)n1)C1=CCOC1=O` (some centres unmarked) [Example 49, 14-Deoxy-12-[N-(1,2-dihydro-2-pyrimidinone)amino]andrographolide], the figure is 163 °C.
Still for that read-out and setting: the result for `C=C1CCC2[C@](C)(CO)[C@H](O)CC[C@]2(C)[C@H]1CC(C1=CCOC1=O)n1ccc(=O)[nH]c1=O` (some centres unmarked) [Example 50, 14-Deoxy-12-(N^1-uracil)andrographolide] reads 164 °C; that for `C=C1CCC2[C@](C)(CO)[C@H](O)CC[C@]2(C)[C@H]1CC(C1=CCOC1=O)n1cc(Br)c(=O)[nH]c1=O` (some centres unmarked) [Example 52, 14-Deoxy-12-[N^1-(5-bromouracil)]andrographolide], 185 °C.
Regarding `C=C1CCC2[C@](C)(CO)[C@H](O)CC[C@]2(C)[C@H]1CC(C1=CCOC1=O)n1cc(I)c(=O)[nH]c1=O` (some centres unmarked) [Example 53, 14-Deoxy-12-[N^1-(5-iodouracil)]andrographolide], the melting point was in the range of 187 to 188 °C.
In turn, `C[C@]1(CO)C2CC[C@]3(CO3)[C@H](CC(Sc3ccccc3)C3=CCOC3=O)[C@@]2(C)CC[C@H]1O` (some centres unmarked) [Example 54, 14-Deoxy-8,17-epoxy-12-phenylthio andrographolide] displayed a melting point of 90 °C.
In turn, `C=C1CCC2[C@](C)(CO)[C@H](O)CC[C@]2(C)[C@H]1CC(Sc1ccccc1)C1=CCOC1=O` (some centres unmarked) [Example 63, 14-Deoxy-12-phenylthio andrographolide] returned a melting point of 105 °C. In addition, the “Stimulation Index (SI)” value in the series on Human lymphocytes worked out at 59.
The compound `C=C1CCC2[C@](C)(CO)[C@H](O)CC[C@]2(C)[C@H]1CC(SCC)C1=CCOC1=O` (some centres unmarked) [Example 64, 14-Deoxy-12-ethylthio andrographolide] showed a melting point of 160 °C.
`C=C1CCC2[C@]3(C)COC(C)(c4ccccc4)OC3CC[C@]2(C)[C@H]1CC(Sc1ccccc1)C1=CCOC1=O` (some centres unmarked) [Example 67, 14-Deoxy-3,19-O-(1-phenylethylidene)-12-phenylthio andrographolide] registered a melting point of 154.1 °C.
Regarding `C=C1CCC2[C@]3(C)COC(C)(c4ccccc4)OC3CC[C@]2(C)[C@H]1CC(SCC)C1=CCOC1=O` (some centres unmarked) [Example 68, 14-Deoxy-3,19-O-(1-phenylethylidene)-12-ethylthio andrographolide], the melting point lay within 122.5 to 125 °C.
Turning to `C=C1CCC2[C@]3(C)COC(c4ccccc4)OC3CC[C@]2(C)[C@H]1CC(Sc1ccccc1)C1=CCOC1=O` (some centres unmarked) [Example 69, 3,19-O-Benzylidene-14-deoxy-12-phenylthio andrographolide], the melting point was in the range of 74 to 76 °C.
Compound `C=C1CCC2[C@](C)(COC(C)=O)C(OC(C)=O)CC[C@]2(C)[C@H]1CC(OC(C)=O)C1=CCOC1=O` (some centres unmarked) [Example 74, 12-Acetoxy-3,19-diacetyl-14-deoxy andrographolide] displayed a melting point of 152.7 °C.
The compound `CCC(=O)OC[C@@]1(C)C2CC[C@]3(CO3)[C@H](CC(OC(=O)CNC(=O)OC(C)(C)C)C3=CCOC3=O)[C@@]2(C)CC[C@H]1OC(=O)CC` (some centres unmarked) [Example 77, 12-(N-Bocglycinyloxy)-14-deoxy-8,17-epoxy-3,19-dipropionyl andrographolide] yielded a melting point of 80 °C.
